Test results from paper PMC9321647, “Curcumin-Based β-Diketo Ligands for Ga^3+: Thermodynamic Investigation of Potential Metal-Based Drugs” (Pharmaceuticals, 2022).
Read-outs that look alike come from different tables or passages of the source.

Legend:
[1] = cited from earlier work
transferrin = tested on: transferrin; set-up: method as in PMID 22800370; details: normal plasma bicarbonate concentrations; cited from earlier work
[2] = Spectrophotometric pH titrations of ligands (protonation constants, pKa); assay type: physicochemical; details: 298 K; for pKa: aqueous solution (methanol stock diluted in water), calculated from logβ values, * = keto–enol moiety dissociation
Protocol: (§1) UV–visible spectra were recorded with a JASCO V-570 UV/Vis/NIR spectrophotometer at 298 K in the 250–600 nm spectral range employing quartz cells (1 cm optical path). To perform spectrophotometric titrations, ligands (denoted generally as L in the following) were dissolved in methanol to give a mother solution (2.50 mM), that was then diluted in water in order to obtain a final concentration of 50 μM. The metal/ligand (M:L) solutions were obtained by adding appropriate quantities of Ga(NO3)3 as methanol solutions (5–10 mM) in order to obtain the metal-to-ligand 1:1 molar ratio (L = 50 μM and V = 25 mL). For both L and M:L systems, pH (initial value of about 5) was varied by adding small amounts (<1 μL) of concentrated NaOH (4 M) up to ca. pH 11, thus to consider volume variations negligible. To evaluate the complexation ratio, constant additions of the M solution (10 µL each time, M = 10^–2 M) were dropped into the ligand solution (V = 25 mL, L = 50 μM) using a micropipette in order to reach different M:L molar ratios. A constant ionic strength (NaNO3, 0.1 M) was maintained in all experiments. Spectrophotometric investigations of iron(III) systems were performed in the same conditions; the Fe^3+ solution was freshly prepared in methanol starting from Fe(NO3)3·9H2O. The overall protonation constants (logβqr) and the overall stability constants of metal complexes (logβpqr) were evaluated from spectrophotometric data. The stability constants (βpqr), defined by the following equations:(3) pM^m++qL^l^−+rH^+⇌MpLqHr(mp−lq+r) (4) βpqr=[MpLqHr(mp−lq+r)]/[M^m+]^p·[L^l−]^q·[H^+]^r where L is the ligand in the completely dissociated form and H is proton, were refined using least-squares calculation in HypSpec. The results of least-squares calculation include the standard deviations and correlation coefficients of the refined parameters. The quantities are obtained by performing error propagation calculation from the experimental errors onto the parameters. The stability constant refinement furnishes least-squares estimates of the standard deviation, σ, of the stability constant β. The error on logβ is calculated as follows: σ(logβ) = [log(β + σ) − log(β − σ)]/2.

[3] = Kinetic stability of ligands in simulated physiological conditions (UV-Vis); assay type: physicochemical
Protocol: The chemical stability of ligands and metal complexes at the M:L 1:L molar ratio at 37 °C in darkness was evaluated by UV−Vis spectroscopy as a change in absorbance in the 250−600 nm range over an overall period of 8 h. Solutions (5.0 × 10^–5 mol L^–1) of the ligands were prepared in 0.1 mol L^–1 phosphate-buffered solution (PBS) at pH 7.4. Spectra were recorded every 30 min. All profiles were linearized as the hyperbolic function defined by Equation (2), which represents an empirical model that describes drug decomposition or release well [42]:(2) t/f%=at+b where f% is the percentage of the residual compound at time t (min) referred to the starting concentration at time zero determined by reading the absorbance at λmax.

[4] = Keto-enol/diketo tautomer amounts by 1H NMR; assay type: physicochemical; details: molar percentage, MeOD-d4, 298 K
Protocol: NMR spectra were recorded by means of a Bruker Biospin FT-NMR AVANCE III HD (600 MHz) spectrometer equipped with a CryoProbe BBO H&F 5 mm in inverse detection. The nominal frequencies were 150.90 MHz for ^13C and 600.13 MHz for ^1H, respectively. For each sample, 1–5 mg were weighed and diluted up to 0.6 mL with a proper solvent in a 5 mm NMR tube; 90° pulse was calibrated for each sample, and standard NMR parameters were used to achieve quantitative results (relaxation delay, 10 s). Proton and carbon chemical shifts are given in parts per million (ppm) versus external TMS and were determined by reference to the solvent residual signals. Typical 2D homo- and heteronuclear techniques were used for assignment, i.e., ^1H,^1H COSY, ^1H,^13C HSQC, ^1H,^13C HMBC. NMR investigations of Ga^3+:L systems were performed in MeOD-d4 by adding small amounts of a Ga(NO3)3 solution (10 μL each) to 1 mM ligand solution (0.6 mL) until reaching the desired metal-to-ligand molar ratio. The complexation reaction is fast, and spectra were registered few minutes after the addition. Two-dimensional ^1H,^13C heteronuclear multiple bond correlation (HMBC) experiments (hmbcgpndqf in Bruker library) were performed via heteronuclear zero and double quantum coherence, optimized on long-range couplings (^3/4JHC = 8 Hz), with no decoupling during acquisition, and gradient pulses were used for selection. The relative percentages of the isomeric forms were estimated on the basis of the NMR data. Particularly, ^1H NMR spectra were acquired in quantitative conditions being D1 (relaxation delay) at least five times the T1 of the slowest relaxing signal of interest. The raw data were Fourier-transformed, and then the processing was performed by zero filling (SI = TD), line broadening (lb 0.3 Hz), accurate phasing and correcting the baseline. The most isolated signals were selected for integration, i.e., the vinyl protons (H-3 and H-4), and an average of the integrated area (A) of H-3 and H-4 was used for relative quantitation, according to the following equation: %Tautomeri=(A(H−3)i+(A(H−4)i)/2/∑i(A(H−3)i+(A(H−4)i)/2×100

[5] = tested on: HCT116 colon carcinoma cells; experiment: MTT cell viability assay; assay type: cell-based, Human; details: Homo sapiens, HCT-116, HCT116, 48 h of treatment, mean
Protocol: Human colorectal carcinoma HCT116 cells (#91091005, ECACC) were grown in an IMDM medium (Biowest) supplemented with 2 mM glutamine, 100 IU/mL penicillin, 100 μg/mL streptomycin and 10% FBS (Gibco). The cell lines were grown at 37 °C in a humidified incubator containing 5% CO2. The cells were verified to be mycoplasma-free and passaged < 3 months. The inhibition of cell proliferation was measured by colorimetric 3-(4,5-dimethylthiazol-2-yl)-2,5-diphenyltetrazolium bromide (MTT) assay. GI50 concentrations were determined using the CompuSyn software version 1.0 (ComboSyn, Inc., Paramus, NJ USA) (free download via www.combosyn.com, accessed on 30 May 2022), and statistical analyses were performed using the GraphPad PRISM software (version 6.01 for Windows, GraphPad Software, San Diego, California USA GraphPad Prism) using unpaired t-test. Data were considered to be statistically significant if p < 0.05 (*), p < 0.01 (**), p < 0.001(***) and p < 0.0001 (****).

[6] = Spectrophotometric pH-metric titrations of Ga^3+:ligand systems (stability constants, pGa, speciation); assay type: physicochemical
Protocol: as §1
Hydroxide species, such as [Ga(OH)2]^+, were taken into account for calculations. The hydrolysis constants for Ga^3+ are as follows: logβ1,1,0 = −3.93; logβ2,1,0 = −7.73; logβ3,1,0 = −12.38; logβ4,1,0 = −15.96; logβ32,13,0 = −66.3; logβ3,1,0(s) = −3.54 [43]; pGa is defined as (−log[Ga^3+]free) and is calculated at specific conditions (Ga^3+total = 1 μM, Ltotal = 10 μM, pH 7.4, 25 °C). For the calculation of the iron(III) overall stability constants, the presence of [Fe(OH)]^2+, [Fe(OH)2]^+ and [Fe(OH)3] species was taken into account.

[7] = HypSpec, spectrophotometric data

CC(=O)N(O)CCCCCNC(=O)CCC(=O)N(O)CCCCCNC(=O)CCC(=O)N(O)CCCCCN [DFOB]
pGa [1]: 21.6

[Fe+3] [Fe^3+]
log K1 binding constant to transferrin (transferrin): 22.8 | log K2 binding constant to transferrin (transferrin): 21.7

[Ga+3] [Ga^3+]
log K1 binding constant to transferrin (transferrin): 20.3 | log K2 binding constant to transferrin (transferrin): 19.3

O=C(O)CCP(=O)(O)CN1CCN(CP(=O)(O)CCC(=O)O)CCN(CP(=O)(O)CCC(=O)O)CC1 [PrP9]
pGa [1]: 23.1

O=C(/C=C/c1ccc(O)cc1)C(CCCN1C(=O)c2ccccc2C1=O)C(=O)/C=C/c1ccc(O)cc1 [Compound 3]
logβ011 overall protonation constant [2, 7]: 10.88 (2) | logβ012 overall protonation constant [2, 7]: 20.29 (2) | logβ013 overall protonation constant [2, 7]: 28.84 (4) | pKa ([2]; read-out: pKa1): 8.55 | pKa ([2]; read-out: pKa2): 9.41 | pKa ([2]; read-out: pKa3): 10.9 | Stability: percentage of the residual ligand after 4 h ([3]; PBS, pH 7.4, 37 °C in darkness, 4 h): 47% | Stability ranking (residual ligand after 4 h) ([3]; rank among the 7 ligands, 1 = most stable): 6 | KK (%) amount of diketo form [4]: 55% | KE (%) amount of keto–enol form ([4]; for 2 includes KE form of the Z isomer (6%)): 45% | GI50 [5]: 6.21 µM | log β 112 overall stability constant (Ga^3+) ([6]; 298 K, HypSpec): 28.28 (3) | log β 124 overall stability constant (Ga^3+) ([6]; 298 K, HypSpec): 54.63 (5) | logK11 apparent formation constant (Ga^3+, M:L 1:1) ([6]; 298 K, estimated from logβMLH): 7.99 | logK12 apparent formation constant (Ga^3+, M:L 1:2) ([6]; 298 K, estimated from logβMLH): 14.05 | Prevailing Species (pH 5.5) ([6]; Ga^3+ complex species, pH 5.5): [Ga(H2L)2]^+ | Prevailing Species (pH 7.4) ([6]; Ga^3+ complex species, pH 7.4, ** possible formation of gallium hydroxide species): [Ga(H2L)2]^+ | pGa (−log[Ga^3+]free) ([6]; [Ga^3+]total = 1 μM, [L]total = 10 μM, pH 7.4, 25 °C): 20.8
